Laboratory results published in PubChem BioAssay (NCI).
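48-hour exposure; five concentrations; linearly interpolated endpoints. Here, GI50 denotes the concentration required for 50% inhibition of growth. TGI is the concentration that stops growth completely.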

Assays:
Experiment in all cases: NCI anticancer screen, dose series, 48 h
OVCAR-8 ovarian = test system: OVCAR-8 ovarian
SF-539 CNS = test system: SF-539 CNS
HT29 colon = test system: HT29 colon
SN12C renal = test system: SN12C renal
NCI-H460 lung = test system: NCI-H460 lung
MOLT-4 leukemia = test system: MOLT-4 leukemia
U251 CNS = test system: U251 CNS
RXF 393 renal = test system: RXF 393 renal
PC-3 prostate = test system: PC-3 prostate
MDA-MB-231 breast = test system: MDA-MB-231 breast
MDA-N = test system: MDA-N

SMILES	TGI (OVCAR-8 ovarian) [µM]	TGI (SF-539 CNS) [µM]	TGI (HT29 colon) [µM]	TGI (SN12C renal) [µM]	TGI (NCI-H460 lung) [µM]	TGI (MOLT-4 leukemia) [µM]	TGI (U251 CNS) [µM]	TGI (RXF 393 renal) [µM]	TGI (PC-3 prostate) [µM]	TGI (MDA-MB-231 breast) [µM]	TGI (MDA-N) [µM]	GI50 (SF-539 CNS) [µM]	GI50 (SN12C renal) [µM]	GI50 (U251 CNS) [µM]
N#CCCC(C#N)(C#N)CCC#N	> 100	> 100	> 100	> 100	> 100	> 100	> 100							
CCOC(=O)/C(C1=NCCN1C)=C(\O)c1ccccc1	> 100		> 100	> 100	> 100	> 100	> 100	> 100						
C1=NN2C(c3ccccc3)=NOC2C2C(c3ccccc3)=NOC12 (stereo unspecified)	> 100	> 100			> 100			> 100	> 100	> 100	> 100			
c1cc2c(cc1C1OCC3C(c4ccc5c(c4)OCO5)OCC13)OCO2 (stereo unspecified)	> 100	> 100	> 100	> 100	> 100	> 100	> 100	> 100						
C#CN1C(=O)c2c(c(-c3ccccc3)c(-c3ccc(Oc4ccc(-c5c(-c6ccccc6)c6c(c(-c7ccccc7)c5-c5ccccc5)C(=O)N(C#C)C6=O)cc4)cc3)c(-c3ccccc3)c2-c2ccccc2)C1=O	> 100	> 100	> 100	> 100	> 100	> 100	> 100	> 100						
CN1C(=O)C(=Cc2ccc(Br)cc2)C(=O)N(C)C1=O					> 100	> 100	> 100	> 100	> 100	> 100				
COC(C)=NCCC1=CCCCC1	> 100		> 100		> 100	> 100	> 100	> 100	> 100	> 100	> 100			
c1ccc2c(c1)CCN1CCc3ccccc3C1C2 (stereo unspecified)	> 100	61.5	> 100	> 100	> 100	> 100	> 100		> 100	> 100	> 100			
O=C1CSC(c2ccccc2)N1c1ccc(-c2ccc(-n3c(-c4ccccc4)nc4ccccc4c3=O)cc2)cc1 (stereo unspecified)	> 100		> 100	> 100	> 100	> 100	> 100		> 100	> 100	> 100			
COc1ccc(/C=C2/SC(=Nc3ccccc3)N(NC(=O)Cc3ccccc3)C2=O)cc1	> 100	> 100	> 100	> 100	> 100	> 100	> 100	> 100		> 100	> 100			
O=C(O)C12C3CCC(C3)C1(C(=O)O)C1CCC2C1 (stereo unspecified)	> 100		> 100	> 100	> 100	> 100		> 100						
O=C(c1ccccc1)n1cc(/C=C/[N+](=O)[O-])c2ccccc21	> 100	46.4	> 100	> 100	43.3	40.3	33.3	36.9						
COC(=O)c1cc(/C=C/C(=O)Cc2ccccc2)cn1S(=O)(=O)c1ccccc1	> 100	> 100	> 100	> 100	> 100	> 100		> 100	> 100	> 100	> 100			
Cc1cn(C2CC(O)C(Cn3nncc3Cn3cnc4c(N)ncnc43)O2)c(=O)[nH]c1=O (stereo unspecified)	> 100	> 100		> 100		> 100	> 100	> 100	> 100		> 100			
COc1cc(-c2nc(N)c(C#N)c3c2CCS(=O)(=O)c2ccc(C)cc2-3)cc(OC)c1OC	26.9		> 100	> 100	> 100		> 100		> 100	56.3	> 100			
Cc1cc2c(cc1Cl)SC(NNCCO)=NS2(=O)=O	> 100	> 100	> 100		> 100	> 100	> 100	> 100	> 100	> 100				
CC(C)CCNC(=O)c1ccc(CNC(=O)/C=C/c2ccc3ccccc3c2)cc1	> 100			> 100	> 100	> 100	> 100	> 100	> 100	> 100	> 100			
O=c1ccn(C/C=C/c2ccccc2)c(=S)n1C/C=C/c1ccccc1	> 100		> 100	> 100	> 100	92.6	> 100	85.6	> 100	> 100	> 100			
CN(C)c1n2c3ccc([N+](=O)[O-])cc3n3c(N(C)C)[n+]4ccccc4c3c2c2cccc[n+]12	> 100		> 100	> 100	> 100	> 100	> 100	> 100	> 100	> 100	> 100			
Cc1c(-c2coc(-c3ccc([N+](=O)[O-])cc3)n2)c(=O)n(-c2ccccc2)n1C	> 100	> 100	> 100	> 100	> 100	> 100	> 100							
Nc1c(F)c(F)c2c(c1F)N(CCCCCl)c1ccccc1S2		> 100	> 100	> 100	> 100	> 100	> 100	> 100	> 100	> 100				
CC1(C)N=C(C(N)=O)c2ncn(Cc3ccccc3)c2N1	> 100	> 100	> 100	> 100	> 100		> 100	> 100	> 100	> 100	> 100			
C=C1N(C)c2ccc(S(=O)(=O)c3ccc4c(c3)C(C)(C)C(=C)N4C)cc2C1(C)C	> 100	> 100	> 100	> 100	> 100	91.7	> 100		> 100	> 100	> 100			
COc1ccc(S(=O)(=O)N/N=C(\C)CN2C(=O)c3ccccc3C2=O)cc1OC	> 100	> 100	> 100	> 100	> 100	> 100	> 100							

SMILES	TGI (OVCAR-8 ovarian) [µM]	TGI (SF-539 CNS) [µM]	TGI (HT29 colon) [µM]	TGI (SN12C renal) [µM]	TGI (NCI-H460 lung) [µM]	TGI (MOLT-4 leukemia) [µM]	TGI (U251 CNS) [µM]	TGI (RXF 393 renal) [µM]	TGI (PC-3 prostate) [µM]	TGI (MDA-MB-231 breast) [µM]	TGI (MDA-N) [µM]	GI50 (SF-539 CNS) [µM]	GI50 (SN12C renal) [µM]	GI50 (U251 CNS) [µM]
O=c1[nH]c(=O)n([C@H]2C[C@@H](CO)[C@@H](O)C2)cc1I	> 100	> 100	> 100	> 100	> 100	> 100	> 100							
Cc1n[nH]c(=O)n1/N=C/c1ccco1	> 100	> 100	> 100	> 100	> 100	> 100	> 100	> 100	> 100	> 100				
c1ccc2c(c1)nc1ccccn12	> 100	> 100	> 100	> 100	> 100	> 100	> 100	> 100	> 100		> 100			
COP12(OC)NC(=O)OC1(C(F)(F)F)c1ccccc1O2 (stereo unspecified)	> 100	> 100	> 100	> 100	> 100	> 100		> 100						
Cc1cc(NS(=O)(=O)c2ccc(NO)cc2)no1	> 100	> 100	> 100	43	> 100	> 100		> 100	> 100	> 100	44.4			
COc1cc(C2C(C(=O)NCc3ccccc3)=C(C)NC(C)=C2C(=O)NCc2ccccc2)ccc1O	> 100	41	38	> 100	> 100	55.8	83.2	77.8						
Cc1c2c(n3c(nc4ccccc43)c1C#N)N(c1ccc(F)cc1)CC2	> 100	> 100	> 100	> 100	> 100		> 100	> 100	> 100					
O=C1CCC(=O)c2ccccc2N1	> 100	> 100	> 100	> 100	> 100	> 100	> 100	> 100						
CN1CCS(=O)(=O)NC(Cc2ccccc2)C(=O)N2CCCC2C1=O (stereo unspecified)	> 100	> 100	> 100	> 100		> 100	> 100							
Nc1ccc(-c2nc3ccccc3s2)cc1CO	> 100		> 100	> 100	> 100	> 100	> 100	> 100	> 100	> 100	> 100			
O=C1C(Cl)C(c2ccc(O)cc2)N1n1cnc2ccccc2c1=O (stereo unspecified)	26	> 100	> 68.8	> 100	> 100	93.4	> 100	35.7						
COc1ccc2nc3ccc(OC)cc3c(S(=O)Cc3ccccc3)c2c1 (stereo unspecified)	12.7	27.2	10.6	21.3	> 74.5	> 23.6	> 56.1	> 43.5	27.2	30.8				
O=C(Nn1c(-c2ccccc2)nc2ccccc2c1=O)c1cccc([N+](=O)[O-])c1	> 100	> 100	> 100	> 100	> 100	> 100	> 100	> 100	> 100		> 100			
O=c1cccccc1[O-].O=c1cccccc1[O-].O=c1cccccc1[O-].[Nd+3]	90.7	74.9	> 100	> 100	> 100	> 100	> 100	50.2				19.7	35.6	38.7
CN(C)CC1(Cc2ccccc2)CC/C(=C\c2ccccc2)C1=O (stereo unspecified)	> 100	60.3	52.6	> 100	68.3	67.5	> 100	92.8						
NNC(=O)/C(NC(=O)c1ccccc1)=C(\N)c1cccc([N+](=O)[O-])c1	> 100	> 100	> 100	> 100	> 100	> 100	> 100	> 100						
COc1cccc(CCn2c(N)c(-c3cc(Cl)cc(Cl)c3)c3ccc([N+](=O)[O-])cc3c2=O)c1	> 100	> 100	> 100	> 86.7	> 30.8	> 100	> 49.3		> 61.9	61.1	> 100			
COC(=O)C(=O)C(C(=O)OC)C(=O)C(=O)Nc1cc(Cl)c(C)cc1S(=O)(=O)O (stereo unspecified)	> 100	> 100	> 100	> 100	> 100	> 100	> 100	> 100						
c1ccc2cc(C3NCCc4[nH]cnc43)ccc2c1 (stereo unspecified)	> 100	> 100	> 100	> 100	> 100	57.9	> 100	> 100						
CN1CCCS/C1=C1/SC(=S)N(c2ccccc2)C1=O	> 100	> 100	> 100	> 100	> 100	> 100	> 100	> 100						
N#Cc1ccc(C2OCC3CC=CCC3CO2)cc1 (stereo unspecified)	> 100	> 100	> 100	> 100	> 100	> 100	> 100	> 100						
N#CCCC1(CCC#N)S(=O)(=O)OCCOS1(=O)=O	> 100	31.1	> 100	> 100		> 100	> 100	> 100	> 100		> 100			
COc1cc2ccnc(C#N)c2cc1OCc1ccccc1	> 100	> 100	> 100	> 100	> 100	> 100	> 100							
COc1cc2c(cc1NC(=O)c1ccccc1)c1c(n2S(=O)(=O)c2ccccc2)CCN(S(=O)(=O)c2ccccc2)C1	> 100		> 100		> 100	> 100	> 100	> 100	> 100					
